{"source": "patent US6660251B1", "about": "“Galenic formulation containing biotin” (Merck Patent GmbH, priority 1999, dated 2003)", "key": {"[1]": {"tested_on": "native human keratinocytes", "test": "Investigations on the lipid (fatty acid) content of native human keratinocytes under biotin", "format": "cell-based", "settings": "under the action of biotin", "description": "HaCaT cells (human adult low-calcium high-temperature keratinocytes) and native human keratinocytes are cultured in Gibco's keratinocyte serum-free medium (SFM) with addition of BPE (25 μg/ml bovine hypophysis extract) and rEGF (0.1-0.2 ng/ml, recombinant epidermal growth factor) in 5% strength CO2 atmosphere (pH 7.2-7.4) at 36.6° C. in the low-calcium status (0.09 mM) in culture flasks (1 million cells/20 ml of SFM) and treated with the biotin solution (biotin dissolved in buffer according to McIloaine; medium concentration 10^−7-10^−3 mol/l and solvent control) on the 3rd day after sowing. On the 6th day, the confluent monolayer is harvested and the samples are prepared, individual pellets up to 3 million cells each being used for the lipid extraction and for the protein determination. […]\n(§1) The lipid film is taken up in 4 ml of methanol (gradient grade for HPLC) and analyzed via GC-MS.\nThe extracted lipids of the keratinocytes are analyzed as methanolic solutions via GC-MS in order to quantify the fatty acids contained therein. […]\n(§2) The protein content of the cells is determined according to the Lowry method using the protein assay kit. After preparation according to the procedure for the kit (P 5656), the measurement was carried out on an absorption reader at 690 nm."}, "[2]": {"tested_on": "HaCaT keratinocytes", "test": "Investigations on the lipid (fatty acid) content of HaCaT keratinocytes under biotin", "format": "cell-based, human", "description": "HaCaT cells (human adult low-calcium high-temperature keratinocytes) and native human keratinocytes are cultured in Gibco's keratinocyte serum-free medium (SFM) with addition of BPE (25 μg/ml bovine hypophysis extract) and rEGF (0.1-0.2 ng/ml, recombinant epidermal growth factor) in 5% strength CO2 atmosphere (pH 7.2-7.4) at 36.6° C. in the low-calcium status (0.09 mM) in culture flasks (1 million cells/20 ml of SFM) and treated with the biotin solution (biotin dissolved in buffer according to McIloaine; medium concentration 10^−7-10^−3 mol/l and solvent control) on the 3rd day after sowing. On the 6th day, the confluent monolayer is harvested and the samples are prepared, individual pellets up to 3 million cells each being used for the lipid extraction and for the protein determination.\nThe cells are extracted following the lipid extraction of Bligh and Dyer (B. E. Bligh et al. (1959) A rapid method of total lipid extraction and purification. Can. J. Biochem. Physiol. 37: 911-917). For this, the cell pellet is treated with 20 ml of a solvent mixture (chloroform: methanol=2:1), homogenized with stirring and extracted with shaking in the dark for 30 min. It is then filtered through a sterile filter and the extract is concentrated on a vacuum rotary evaporator.\nas §1\nThe extracted lipids of the keratinocytes are analyzed as methanolic solutions via GC-MS in order to quantify the fatty acids contained therein. 100 μl of the solution are reacted with 1 μl each of 0.2 M trimethylsulfionium hydroxide to give methyl esters in order to improve the evaporability.\nas §2\nThe results of the influence of biotin on the fatty acid content of HaCaT keratinocytes are shown in FIGS. 1 to 4 for various concentrations of biotin (dissolved in buffer according to McIloaine). As control, the fatty acid content of the HaCaT keratinocytes after corresponding action of the buffer without biotin is moreover shown in FIGS. 1 to 4. The contents of the fatty acids myristic acid (MA), palmitic acid (PA), stearic acid (SA), oleic acid (OS) and linoleic acid (LA) are shown based on the protein content of the cells."}, "[3]": {"test": "Penetration investigations on human skin ex vivo (FRANZ diffusion cell, 14C-biotin)", "format": "in vitro ADME", "text": "To characterize the penetration behavior of biotin from different emulsions in excised human skin, FRANZ's diffusion cell is chosen as an in-vitro model. The selection of the model is based on the experience of the authors, who were able to detect correlating results between the in-vitro data of the model and the in-vivo results (R. J. Feldmann, et al. (1970): Absorption of some organic compounds through the skin in man. J. Invest. Dermatol. 54: 399-404: T. J. Franz (1975): Percutaneous absorption. On the relevance of in vitro data. J. Invest. Dermatol. 64: 190-195). The basic unit of the FRANZ diffusion cell consists of a double-walled, temperature-controllable glass section. The acceptor liquid which is continuously kept in the homogeneous state by stirring is situated therein. In direct contact with the acceptor is the sample material on a gauze, which is stabilized by a glass ring and a metal clamp. A glass cover functions as evaporation protection for the upkeep of largely constant hydration conditions during the investigation period. […] It is determined quantitatively in fractionation of the detachments in pairs (10×2). […] Following this, the samples are measured in the liquid scintillation counter with addition of two blank values. […]"}, "[4]": {"settings": "cited from earlier work"}, "[5]": {"tested_on": "skin of old people", "settings": "cited from earlier work"}}, "data": [{"compound": "O=C(O)CCCCC1SCC2NC(=O)NC21", "note": "(stereo not drawn) [biotin, hexahydro-2-oxiothieno [3,4-d]imidazole-4-valeric acid]", "values": [{"measurement": "concentration of linoleic acid (LA)", "setting": "[1]", "value": "absence of an increase"}, {"measurement": "concentration of the fatty acids myristic acid (MA), palmitic acid (PA), stearic acid (SA) and oleic acid (OA)", "setting": "[1]", "value": "Increases"}, {"measurement": "concentration of linoleic acid (LA)", "setting": "[2]; HaCaT keratinocytes, under the action of biotin", "value": "absence of an increase"}, {"measurement": "lipid synthesis power of keratinocytes", "setting": "[2]; biotin concentration in the medium 10^−5 to 10^−3 mol/l", "value": "increased"}, {"measurement": "lipid synthesis power of keratinocytes", "setting": "[2]; biotin concentration in the medium 10^−6 mol/l", "value": "inefficacious"}, {"measurement": "concentration of the fatty acids myristic acid (MA), palmitic acid (PA), stearic acid (SA) and oleic acid (OA)", "setting": "[2]; culture of HaCaT keratinocytes, under the action of biotin", "value": "Increases"}, {"measurement": "effective biotin concentration", "setting": "[2]; stimulation of lipid synthesis, from FIG. 2", "value": "10^−5 mol/l"}, {"measurement": "penetration of biotin through the horny layer of the human skin", "setting": "[3]", "value": "does not penetrate or does not penetrate in an efficacious concentration"}, {"measurement": "efficacy in soft, brittle and splitting nails, different forms of alopecia and atopic and seborrheic dermatitis", "setting": "[4]; continuous biotin therapy", "value": "possible to show the efficacy"}, {"measurement": "side effects", "setting": "[4]; in vivo", "value": "no side effects at all"}, {"measurement": "epithelial and histopathological changes in the areas treated", "setting": "[5]; in vivo", "value": "not possible to show any epithelial and histopathological changes at all"}, {"measurement": "development of wrinkles on the skin of old people", "setting": "[5]; topically applied formulations, biotin content 0.25% and 0.50%", "value": "visible reduction"}]}]}
